Measurements: US20120028837A1, “RAPID SCREEN FOR REPRODUCTIVE TOXICANTS” (PRESIDENT AND FELLOWS OF HARVARD COLLEGE, priority 2010, published 2012)

How the values were obtained:
[1] = system: C. elegans diakinesis oocytes; test: Diakinesis oocyte analysis (chromosome condensation, SYP-1, AIR-2, pH3); conditions: for -1 oocytes showing lack of condensation: BPA
Description: Proper processing of recombination events is coupled with the formation of mature bivalents during the diakinesis stage such that in mutants where recombination intermediate processing is impaired, bivalent maturation is delayed.
Associated with the changes in chromatin morphology, the SC is disassembled during late diakinesis in a tightly controlled fashion. Accordingly, SC components, such as SYP-1, are detectable on the short arms of the bivalent in the −3 oocyte but are essentially absent from the bivalents of −2 and −1 oocytes. Thus, whether a delay in chromosome remodeling could correlate with an incomplete disassembly of SC components in late diakinesis was examined.
Accurate chromosome segregation at meiosis I is characterized by the carefully orchestrated loss of cohesion between homologs coupled with retention of cohesion between sister chromatids. This regulated process involves the targeting of the Aurora-B kinase AIR-2, a member of the chromosomal passenger complex, to the short arm of the bivalents in the −1 oocyte which has been proposed to lead to the removal the meiosis-specific cohesin REC-8 from the short arms of the bivalent. To examine whether these key steps in late meiotic prophase I might be impaired in BPA treated gonads, the localization of AIR-2 in the −1 oocytes was examined. […] Phospho histone H3 (pH3) is a canonical substrate for the activity of AIR-2 [59] and accordingly, although it accumulates in the −3 to −1 oocytes, it is only detected on the short arms of the bivalent in the −1 oocyte in the presence of AIR-2 [56, 57].
BPA bears endocrine disrupting activity in many developmental contexts including gonadal, brain and mammary gland development. BPA has affinity for multiple members of the estrogen receptors family, in particular BPA binds to the human estrogen receptor alpha (ERα) and ERβ as well as estrogen-related receptor gamma (ERR-γ) and in C. elegans with nuclear hormone receptor NHR-14 which also binds estrogen. […] Two hallmarks of exposure to BPA were examined, the decrease in the size of the proliferative zone and the condensation defects observed at diakinesis, as they are both highly penetrant and consistent phenotypes. […] Similarly to the experiments described above, the size of the mitotic zone was quantified as well as condensation defects at diakinesis.
Antibody Staining. DAN staining, immunostaining and analysis of stained meiotic nuclei were performed as in [25] except for ATL-1 and AIR-2 antibodies were dissected gonads were subjected to a 1% fixation method as described in [27]. Antibodies were used at the following dilutions: rabbit α-SYP-1 (1:100), mouse α-RAD-51 (1:100), rabbit α-HTP-3 (1:500), guinea pig α-HIM-8 (1:100), rabbit α-ATL-1 (1:50), rabbit α-AIR-2 (1:100) and rabbit α-pCHK-1 (1:100). The secondary antibodies used were: Cy3 anti-rabbit, FITC anti-guinea-pig and FITC anti-mouse (Jackson Immunochemicals), each at 1:100, Stacks of 0.2 μm slices were captured using a Leica microscope, coupled to the DeltaVision fluorescence microscope system (Applied Precision). The images were projections approximately halfway through 3D data stacks of whole nuclei, except for diakinesis images which encompass entire nuclei.

[2] = system: H2B::mCherry; γ-tubulin::GFP transgenic worms; conditions: OD57 (pie-1::mCherry::H2B; pie-1::GFP::gamma tubulin), C. elegans, in vivo
Procedure: 60 first mitosis in ethanol and BPA exposed H2B::mCherry; γ-tubulin::GFP transgenic worms were captured by live imaging. While normal pronuclear fusion and chromosomal alignment and segregation in ethanol controls was observed, the first division of BPA exposed embryos was highly abnormal. […] In some instances, multiple spindle poles were apparent.
Live Imaging. For live imaging, a pie-1::mCherry::H2B; pie-1::GFP::gamma tubulin OD57 strain was used. The strain was incubated at 25° C. 24 hours prior to imaging. Images were captured using the Leica-Deltavision system described above. Worms were immobilized on an agarose pad by sectioning of the head and images of the first cell division were captured at a rate of one image every 10 seconds for 5 minutes.

[3] = system: C. elegans; conditions: in vivo, 4 days, 1 mM
Procedure: To address whether BPA also affects C. elegans reproduction, worms were exposed to various concentrations of BPA under several culture conditions. The parameters tested were: BPA concentration (100 uM, 500 uM or 1 mM), vehicle (DMSO or ethanol), cholesterol concentration (5 ug/ml, 0.5 ug/ml or none) and culture method (liquid or plate).
Growing Conditions and Drug Exposures. Worms were cultured according to [23] at 20° C. on NGM plates without cholesterol. […] Exposure was carried from embryogenesis to adulthood by plating sodium hypochloride treated eggs onto drug and control plates and incubated at 20° C. for four days.

[4] = system: C. elegans germline; test: Synaptonemal complex and chromatin integrity in transition zone and pachytene (HTP-3, SYP-1, HIM-8, DAPI); format: in vivo
Description: To examine meiotic chromosome synapsis in C. elegans following BPA exposure, assembly of the synaptonemal complex was examined by assessing the localization of the axial element protein HTP-3 (a paralogue of the axial component HIM-3 required for proper synapsis and pairing of homologous chromosomes) and the central region protein SYP-1 [45], as the nuclei enter meiosis. As nuclei exit mitosis and progress into meiosis in wild type germlines, HTP-3 and SYP-1 are assembled onto the chromatin as foci and short tracks which increase in length through the transition zone. By pachytene, the polymerization of the SC is completed and both proteins form fully elongated tracks spanning the entire length of the homologous chromosomes. Following exposure to BPA, the kinetics and extent of assembly of HTP-3 and SYP-1 onto the chromatin during transition zone were not affected when compared to control (n=10 gonads).
These abnormal nuclei were not simply apoptotic nuclei as they were not specifically found near the bend of the gonad, where germline nuclei were cleared by apoptosis but instead could be found throughout pachytene. As disruption of the integrity of the SC could lead to a separation of the homologous chromosomes, the localization of the X specific pairing center component HIM-8 was examined. In C. elegans, specific loci, termed pairing centers, on chromosomes allow for the physical interaction between homologous pairs. HIM-8 along with other pairing center components associate with the pairing centers and the nuclear envelope and mediate homologous pairing.

CC(C)(c1ccc(O)cc1)c1ccc(O)cc1 [BPA, Bisphenol A]
gonads with SYP-1 staining on short arm of bivalent in the -1 oocyte ([1]; BPA exposed gonads): 10% | -1 oocytes with pH3 staining localized to the bivalents ([1]; BPA treated): 14% | gonads in which AIR-2 was not detected on the bivalents of -1 oocytes ([1]; BPA treated gonads): 100% | gonads in which the -1 oocyte did not show normal chromosome condensation ([1]; BPA treated gonads): 23% | gonads with residual SYP-1 staining on short arm of bivalent in the -2 oocyte ([1]; BPA treated gonads): 80% | kinetics of pH3 nuclear accumulation in diakinesis oocytes ([1]; BPA treated oocytes): delay in the kinetics of pH3 nuclear accumulation | -1 oocytes showing lack of condensation ([1]; one day post-L4): 17% | -1 oocytes showing lack of condensation ([1]; three days post-L4): 28% | -1 oocytes showing lack of condensation ([1]; two days post-L4): 24% | delay in bivalent maturation judged by nuclear morphology ([1]; all BPA gonads examined, from -1, -2 or -3 oocyte): some level of delay in bivalent maturation | one-cell embryos failing to align on the metaphase plate and/or segregate properly [2]: 9/60 | embryonic viability [3]: 1.5 % of controls | reduction in the number of eggs laid (brood size) compared to vehicle [3]: 4 fold | pachytene nuclei with DAPI stained bodies or fragments ([4]; BPA exposure): about 10% | kinetics and extent of assembly of HTP-3 and SYP-1 onto chromatin during transition zone ([4]; BPA exposure vs control): not affected | HIM-8 foci per nucleus throughout pachytene ([4]; BPA treated worms): 1 focus per nucleus | chromosome synapsis in pachytene nuclei (SYP-1 staining) ([4]; BPA treated worms): defects in chromosome synapsis
